According to US20240279232A1, “USE OF SUBSTITUTED 5-(4-METHYL-6-PHENYL-4H-BENZO[F]IMIDAZO[1,5-A][1,4] DIAZEPIN-3-YL)-1,2,4-O[…] THE TREATMENT OF INFLAMMATORY CONDITIONS” (priority 2021, published 2024):

Columns and labels:
iNOS = iNOS activity in activated microglia after compound treatment; format: cell-based, mouse; details: 50 μM, treatment for 24 h
Experimental: The cellular proteins were isolated from mouse microglia treated with vehicle and mouse microglia activated with IFNγ/LPS and treated for 24 hours with vehicle or 50 μM MP-IV-010. The specific iNOS activity was determined with an Abcam INOS Activity Assay kit (n=4).
Next, the possible involvement of INOS in MP-IV-010 (and structurally similar compound GL-IV-03) mediated reduction of NO in activated microglia was investigated. INOS activity was measured in activated microglia after a 24-hour treatment with MP-IV-010. Second, proteins were harvested from microglia activated for 24 hours with LPS/INFγ, followed by a 2-hour treatment with MP-IV-010 before measuring iNOS activity. Finally, mRNA and protein levels were quantified for GL-IV-03 treated activated microglia to examine the transcriptional regulation of iNOS.
iNOS activity assay. Mouse microglia were activated with 50 ng/mL LPS (Invivogen, NC9836) and 150 U/mL IFNγ (R&D Systems, 485MI100), and treated with compounds of interest in 6 well plates for 2 or 24 hours. […] Protein was collected, quantified, and analyzed with the Nitric Oxide Synthase Activity kit (Abcam, ab211083) with minor alterations to the established protocol. […] Absorbance at 540 nm was measured using a TECAN Infinite M1000 plate reader. Significance (n=3) was analyzed by ANOVA.

5-HT1A = 5-HT1A (Homo sapiens, UniProt P08908); experiment: PDSP primary binding 5-HT1A; details: PDSP primary screening
Chain of 5-HT1A (P08908 whole entry, species assumed): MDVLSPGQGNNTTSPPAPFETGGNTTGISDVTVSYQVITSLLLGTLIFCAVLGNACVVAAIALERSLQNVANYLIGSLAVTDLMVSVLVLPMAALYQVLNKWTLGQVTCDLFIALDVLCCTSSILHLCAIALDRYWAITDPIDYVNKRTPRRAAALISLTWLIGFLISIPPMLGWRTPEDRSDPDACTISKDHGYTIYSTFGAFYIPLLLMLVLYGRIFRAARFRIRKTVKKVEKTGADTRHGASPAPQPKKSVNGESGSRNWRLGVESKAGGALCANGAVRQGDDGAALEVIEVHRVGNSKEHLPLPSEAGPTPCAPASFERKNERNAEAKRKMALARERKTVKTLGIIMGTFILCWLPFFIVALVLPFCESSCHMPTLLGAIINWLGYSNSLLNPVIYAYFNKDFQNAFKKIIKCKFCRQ
Experimental: (§1) Because reduction of NO could not be reversed by GABAAR antagonists, the possible binding of MP-IV-010 to other cellular receptors was evaluated in collaboration with the NIMH Psychoactive Drug Screening Program.
(§2) Psychoactive Drug Screening Program. Detailed protocols for the primary and secondary radioligand binding assays can be found in the National Institute of Mental Health's Psychoactive Drug Screening Program (NIMH PDSP) Assay Protocol Book. Briefly, primary and secondary radioligand binding assays are carried out in a final of volume of 125 μL per well in appropriate binding buffer. The radioactive ligand concentration is close to the Kd. Total binding and nonspecific binding are determined in the absence and presence of 10 μM of appropriate reference compound, respectively. In brief, plates are usually incubated at room temperature and in the dark for 90 min. Reactions are stopped by vacuum filtration onto 0.3% polyethyleneimine (PEI) soaked 96-well filter mats using a 96-well Filtermate harvester, followed by three washes with cold PBS buffer. Scintillation cocktail is then melted onto the microwave-dried filters on a hot plate and radioactivity counted in a Microbeta counter. The data (n=6) were analyzed by nonlinear regression.

5-HT1D = 5-HT1D (Homo sapiens, UniProt P28221); experiment: PDSP primary binding 5-HT1D; details: PDSP primary screening
Chain of 5-HT1D (P28221 whole entry, species assumed): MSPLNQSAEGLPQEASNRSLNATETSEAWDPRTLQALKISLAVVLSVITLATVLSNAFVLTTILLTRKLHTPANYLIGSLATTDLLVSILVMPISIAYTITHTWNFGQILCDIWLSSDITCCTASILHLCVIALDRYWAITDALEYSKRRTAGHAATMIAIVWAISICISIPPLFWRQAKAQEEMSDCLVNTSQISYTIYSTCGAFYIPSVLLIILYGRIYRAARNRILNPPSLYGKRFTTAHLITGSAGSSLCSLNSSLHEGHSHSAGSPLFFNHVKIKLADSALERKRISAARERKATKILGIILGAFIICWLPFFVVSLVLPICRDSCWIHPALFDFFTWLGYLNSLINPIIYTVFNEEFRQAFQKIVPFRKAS
Experimental: as §1, §2

5-HT5A = 5-HT5A (Homo sapiens, UniProt P47898); experiment: PDSP primary binding 5-HT5A; details: PDSP primary screening
Chain of 5-HT5A (P47898 whole entry, species assumed): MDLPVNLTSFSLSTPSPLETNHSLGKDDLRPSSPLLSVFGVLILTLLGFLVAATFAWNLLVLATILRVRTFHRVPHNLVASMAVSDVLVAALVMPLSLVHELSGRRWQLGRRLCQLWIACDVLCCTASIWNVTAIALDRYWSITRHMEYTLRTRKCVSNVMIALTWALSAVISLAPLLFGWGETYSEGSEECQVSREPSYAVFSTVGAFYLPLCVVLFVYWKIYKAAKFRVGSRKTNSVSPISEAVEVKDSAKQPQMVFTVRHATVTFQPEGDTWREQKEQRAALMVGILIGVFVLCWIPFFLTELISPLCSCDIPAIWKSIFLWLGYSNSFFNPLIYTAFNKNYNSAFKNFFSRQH
Experimental: as §1, §2

5-HT6 = 5-HT6 (Homo sapiens, UniProt P50406); experiment: PDSP primary binding 5-HT6; details: PDSP primary screening
Chain of 5-HT6 (P50406 whole entry, species assumed): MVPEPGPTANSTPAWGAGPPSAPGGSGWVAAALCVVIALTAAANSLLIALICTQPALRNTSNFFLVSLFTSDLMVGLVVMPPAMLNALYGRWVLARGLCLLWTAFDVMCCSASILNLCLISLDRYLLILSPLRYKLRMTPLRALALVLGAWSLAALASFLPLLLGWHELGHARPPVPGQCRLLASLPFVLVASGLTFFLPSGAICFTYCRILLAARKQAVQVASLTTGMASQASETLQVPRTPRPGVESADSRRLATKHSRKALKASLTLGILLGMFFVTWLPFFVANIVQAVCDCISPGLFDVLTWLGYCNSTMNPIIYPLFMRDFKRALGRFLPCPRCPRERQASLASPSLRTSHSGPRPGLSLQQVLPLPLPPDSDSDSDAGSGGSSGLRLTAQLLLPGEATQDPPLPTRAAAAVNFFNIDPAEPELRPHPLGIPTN
Experimental: as §1, §2

5-HT7 = 5-HT7 (Homo sapiens, UniProt P34969); experiment: PDSP primary binding 5-HT7; details: PDSP primary screening
Chain of 5-HT7 (P34969 whole entry, species assumed): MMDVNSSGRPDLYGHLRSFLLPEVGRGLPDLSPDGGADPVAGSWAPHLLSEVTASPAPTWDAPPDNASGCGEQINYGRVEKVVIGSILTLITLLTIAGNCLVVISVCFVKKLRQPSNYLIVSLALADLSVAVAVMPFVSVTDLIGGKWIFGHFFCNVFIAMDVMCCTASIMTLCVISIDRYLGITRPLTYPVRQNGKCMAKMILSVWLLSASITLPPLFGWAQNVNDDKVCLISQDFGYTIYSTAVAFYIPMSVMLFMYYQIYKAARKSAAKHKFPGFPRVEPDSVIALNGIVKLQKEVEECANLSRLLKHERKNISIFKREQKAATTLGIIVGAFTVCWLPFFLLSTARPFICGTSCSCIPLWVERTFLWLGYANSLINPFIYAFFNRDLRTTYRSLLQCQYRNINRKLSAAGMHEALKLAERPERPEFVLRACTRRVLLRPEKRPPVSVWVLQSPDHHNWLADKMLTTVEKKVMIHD
Experimental: as §1, §2

D2 = D2 (Homo sapiens, UniProt P14416); experiment: PDSP primary binding D2; details: PDSP primary screening
Experimental: as §1, §2

SERT = SERT (Homo sapiens, UniProt P31645); experiment: PDSP primary binding SERT; details: PDSP primary screening
Experimental: as §1, §2

DAT = DAT (Homo sapiens, UniProt Q01959); experiment: PDSP primary binding DAT; details: PDSP primary screening
Chain of DAT (Q01959 whole entry, species assumed): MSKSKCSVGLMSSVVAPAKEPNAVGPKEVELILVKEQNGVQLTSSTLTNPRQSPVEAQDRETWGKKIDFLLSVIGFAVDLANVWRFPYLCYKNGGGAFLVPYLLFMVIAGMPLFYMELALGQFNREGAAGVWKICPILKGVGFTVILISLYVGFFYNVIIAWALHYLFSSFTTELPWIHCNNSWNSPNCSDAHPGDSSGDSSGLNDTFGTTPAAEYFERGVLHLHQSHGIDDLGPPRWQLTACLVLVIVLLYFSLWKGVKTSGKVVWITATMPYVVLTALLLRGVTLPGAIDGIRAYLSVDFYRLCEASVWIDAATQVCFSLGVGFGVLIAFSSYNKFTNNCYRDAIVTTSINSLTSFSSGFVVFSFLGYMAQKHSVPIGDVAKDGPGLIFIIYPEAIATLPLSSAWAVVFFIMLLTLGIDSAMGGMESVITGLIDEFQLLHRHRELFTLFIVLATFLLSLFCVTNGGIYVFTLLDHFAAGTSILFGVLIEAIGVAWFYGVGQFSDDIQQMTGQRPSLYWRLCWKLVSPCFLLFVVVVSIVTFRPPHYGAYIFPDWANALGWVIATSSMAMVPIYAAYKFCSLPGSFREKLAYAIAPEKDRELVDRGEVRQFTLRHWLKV
Experimental: as §1, §2

H2 = H2 (Homo sapiens, UniProt P25021); experiment: PDSP primary binding H2; details: PDSP primary screening
Chain of H2 (P25021 whole entry): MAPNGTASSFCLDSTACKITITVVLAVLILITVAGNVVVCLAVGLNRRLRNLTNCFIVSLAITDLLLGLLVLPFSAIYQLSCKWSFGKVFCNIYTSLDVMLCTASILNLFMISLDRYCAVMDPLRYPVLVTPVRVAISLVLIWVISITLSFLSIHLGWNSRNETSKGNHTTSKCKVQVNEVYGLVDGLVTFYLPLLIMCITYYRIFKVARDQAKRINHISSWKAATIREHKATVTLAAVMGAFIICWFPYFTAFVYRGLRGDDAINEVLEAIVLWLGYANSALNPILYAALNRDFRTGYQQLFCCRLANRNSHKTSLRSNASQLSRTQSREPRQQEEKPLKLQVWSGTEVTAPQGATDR
Experimental: as §1, §2

Alpha1A = Alpha1A (Homo sapiens, UniProt P35348); experiment: PDSP primary binding Alpha1A; details: PDSP primary screening
Chain of Alpha1A (P35348 whole entry): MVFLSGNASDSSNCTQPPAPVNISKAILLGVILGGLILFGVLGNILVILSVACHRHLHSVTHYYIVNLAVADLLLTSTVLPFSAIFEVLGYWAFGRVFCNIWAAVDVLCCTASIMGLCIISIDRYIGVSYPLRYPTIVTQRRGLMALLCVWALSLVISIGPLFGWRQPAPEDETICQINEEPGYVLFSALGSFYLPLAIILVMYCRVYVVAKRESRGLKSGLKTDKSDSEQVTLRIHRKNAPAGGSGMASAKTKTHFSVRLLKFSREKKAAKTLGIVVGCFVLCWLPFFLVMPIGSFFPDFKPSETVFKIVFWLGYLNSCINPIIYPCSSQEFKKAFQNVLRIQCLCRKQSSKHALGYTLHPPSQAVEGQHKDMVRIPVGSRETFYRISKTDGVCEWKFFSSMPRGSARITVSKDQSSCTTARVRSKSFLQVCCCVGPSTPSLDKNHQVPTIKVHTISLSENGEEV
Experimental: as §1, §2

Alpha1B = Alpha1B (Homo sapiens, UniProt P35368); experiment: PDSP primary binding Alpha1B; details: PDSP primary screening
Chain of Alpha1B (P35368 whole entry): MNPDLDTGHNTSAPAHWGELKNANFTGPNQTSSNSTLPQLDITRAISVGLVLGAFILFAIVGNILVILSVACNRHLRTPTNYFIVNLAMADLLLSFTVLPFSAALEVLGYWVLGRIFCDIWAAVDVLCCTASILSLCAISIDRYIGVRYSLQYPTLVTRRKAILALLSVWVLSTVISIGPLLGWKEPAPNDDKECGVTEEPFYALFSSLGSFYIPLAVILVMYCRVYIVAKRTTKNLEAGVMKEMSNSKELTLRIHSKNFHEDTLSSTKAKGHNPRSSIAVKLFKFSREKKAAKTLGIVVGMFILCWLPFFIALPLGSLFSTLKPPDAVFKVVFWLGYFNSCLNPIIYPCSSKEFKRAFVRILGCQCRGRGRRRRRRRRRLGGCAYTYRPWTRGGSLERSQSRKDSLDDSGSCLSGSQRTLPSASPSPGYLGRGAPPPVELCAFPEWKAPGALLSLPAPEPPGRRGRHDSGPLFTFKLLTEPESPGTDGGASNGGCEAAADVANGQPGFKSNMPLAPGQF
Experimental: as §1, §2

M1 = M1 (Homo sapiens, UniProt P11229); experiment: PDSP primary binding M1; details: PDSP primary screening
Chain of M1 (P11229 whole entry): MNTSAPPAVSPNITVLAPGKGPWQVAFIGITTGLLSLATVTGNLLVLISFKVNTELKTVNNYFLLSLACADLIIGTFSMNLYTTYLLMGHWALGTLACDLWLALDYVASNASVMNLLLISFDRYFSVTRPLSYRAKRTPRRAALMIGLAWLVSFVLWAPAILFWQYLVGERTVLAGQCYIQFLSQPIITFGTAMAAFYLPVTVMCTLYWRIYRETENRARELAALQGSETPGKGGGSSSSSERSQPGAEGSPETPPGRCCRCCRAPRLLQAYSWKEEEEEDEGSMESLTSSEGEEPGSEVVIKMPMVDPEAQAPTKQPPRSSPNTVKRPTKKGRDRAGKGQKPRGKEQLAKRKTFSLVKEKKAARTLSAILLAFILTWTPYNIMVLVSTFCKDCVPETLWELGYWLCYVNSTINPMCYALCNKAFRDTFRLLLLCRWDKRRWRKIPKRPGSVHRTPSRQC
Experimental: as §1, §2

M4 = M4 (Homo sapiens, UniProt P08173); experiment: PDSP primary binding M4; details: PDSP primary screening
Experimental: as §1, §2

Beta3 = Beta3 (Homo sapiens, UniProt P13945); experiment: PDSP primary binding Beta3; details: PDSP primary screening
Chain of Beta3 (P13945 whole entry): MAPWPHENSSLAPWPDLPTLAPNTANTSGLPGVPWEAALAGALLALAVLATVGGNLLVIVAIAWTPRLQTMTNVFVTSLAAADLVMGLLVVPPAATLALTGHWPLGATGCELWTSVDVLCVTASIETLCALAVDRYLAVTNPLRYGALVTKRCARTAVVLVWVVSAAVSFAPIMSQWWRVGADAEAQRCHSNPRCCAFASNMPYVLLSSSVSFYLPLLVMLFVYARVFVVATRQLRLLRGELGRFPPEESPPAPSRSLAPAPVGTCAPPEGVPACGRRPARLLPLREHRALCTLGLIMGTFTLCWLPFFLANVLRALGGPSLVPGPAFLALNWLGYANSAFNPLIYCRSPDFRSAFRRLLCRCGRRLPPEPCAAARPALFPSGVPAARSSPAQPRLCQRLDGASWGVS
Experimental: as §1, §2

C#Cc1ccc2c(c1)C(c1ccccc1F)=N[C@H](C)c1c(-c3nc(C(C)C)no3)ncn1-2 [MP-IV-010, (R)-5-(8-ethynyl-6-(2-fluorophenyl)-4-methyl-4H-benzo[f]imidazo[1,5-a][1,4]diazepin-3-yl)-3-isopropyl-1,2,4-oxadiazole]
iNOS activity in activated microglia (iNOS): completely inhibited | Percent Competition 5-HT1A (5-HT1A): 19% | Percent Competition 5-HT1D (5-HT1D): 6% | Percent Competition 5-HT5A (5-HT5A): 11% | Percent Competition 5-HT6 (5-HT6): 21% | Percent Competition 5-HT7 (5-HT7): −5% | Percent Competition D2 (D2): 25% | Percent Competition SERT (SERT): 22% | Percent Competition DAT (DAT): 14% | Percent Competition H2 (H2): 28% | Percent Competition Alpha1A (Alpha1A): 2% | Percent Competition Alpha1B (Alpha1B): 15% | Percent Competition M1 (M1): −11% | Percent Competition M4 (M4): 8% | Percent Competition Beta3 (Beta3): 38%
